Data from article PMC13588620, “Linear antibody epitope prediction using AlphaFold2” (eLife, 2026).

Test system: mBG17 binding to SARS-CoV-2 nucleocapsid protein
Experiment: Peptide competition ELISA with overlapping nucleocapsid peptides
Set-up: species or system mouse
Details: 40 μg (approximately 30 nMol) peptide incubated with 40 μl mBG17 for 1 h at room temperature, absorbance at 450 nm, n=3, percentage of binding from no-peptide control

Row | Sequence | competition of mBG17 binding to the SARS-CoV-2 nucleocapsid protein in the ELISA
1 | QLQQSMSSAD [a.a. 406–415, synthetic 10 a.a. peptide of SARS-CoV-2 nucleocapsid protein] | neither was able to compete
2 | PAADLDDFSK [a.a. 296–405, synthetic 10 a.a. peptide of SARS-CoV-2 nucleocapsid protein overlapping a.a; 401–410 at the N-terminus] | neither was able to compete
3 | DDFSKQLQQS [a.a. 401–410] | almost complete competition
